Measurements from patent US10564164B2, “Fluorescent probe, singlet oxygen detection agent, and singlet oxygen detection method” (Osaka University, priority 2014, dated 2020).
Like-named read-outs stand apart in the source and are kept apart here.

Assays:
[1] = cited from earlier work
[2] = Time-resolved phosphorimetry (singlet oxygen generation quantum yield); assay type: physicochemical; details: 250 μM in DMSO and methanol (1:9); 532 nm excitation
Protocol: A sample of Rose Bengal and the Si-Me of Comparative Example 1 was prepared in a DMSO and methanol (1:9) solution placed in a 1×1×4 cm^3 quartz cell (the concentration of Rose Bengal=21.5 μM, and the concentration of Si-Me=250 μM).
Second harmonic oscillation (532 nm, 4 nsfwhm, 5.0 mJ·cm^−2 pulse^−1) generated by a Q-switched Nd YAG laser (Surelite II-10, Continuum) was used as an excitation light. The light-induced luminescence of the sample cell was condensed on a quartz lens via a monochromator, and subsequently introduced into a near-infrared photomultiplier tube module (H10330A-75; Hamamatsu Photonics K.K.).
After the amplification using a 350-MHz amplifier unit (SR445A; Stanford Research Systems), the output of the photomultiplier tube was sent to a gated photon counter (SR400; Stanford Research Systems) under direct PC control via a GPIB interface. In order to measure the lifetime of ^1O2, measurement was performed by changing the delay time between 0 to 50 μseconds at a gate width of 1.0 μsecond, and accumulating the results (repeated 5 times).

HeLa cells = assay: Selectivity of photosensitizer: intracellular singlet oxygen detection with Si-DMA; assay type: cell-based; details: HeLa cells, Si-DMA probe; 60-second light irradiation; photosensitizer as labelled
Protocol: Subsequently, a quick protocol provided by Molecular Probe® for introducing CellROX Green was followed. Using diluted Si-DMA and Si-Me, incubation was performed for 30 minutes to two hours by an experiment. To introduce a photosensitizer, 150 μg/mL of 5-aminolevulinic acid (5-ALA) or 10 LM TMPyP4 were incubated for four hours and 24 hours, respectively. As a result, as previously reported, the conversion of 5-ALA into protoporphyrin IX (PpIX) in the mitochondria was confirmed by the fluorescence luminescence of PpIX.
A KillerRed vector was expressed in accordance with a general Lipofectamine® 2000 (Invitrogen) protocol. More specifically, 2×10^5 Hela cells were subcultured in a 35-mm glass bottom dish. The cells reached about 50% confluent in the next day.
Subsequently, a mixed solution of Lipofectamine reagent and DNA vector was obtained by mixing 6 μL Lipofectamine® 2000 with 7 μL pKillerRed-dMitovector ([…], Evrogen, catalog No. FP964) in an Opti-MEM solution (Gibco). Thereafter, the resulting solution was incubated for 20 minutes at room temperature. 300 μL of the mixed solution was added to a growth medium, and incubated for 24 hours. The expression of KillerRed was confirmed by monitoring KillerRed fluorescence using a wide-view microscope. […]
Further, on the night before the treatment, 0.2×10^6 HeLa cells were seeded on a 35-mm dish, and pKillerRed-dMito vector (Evrogen) was introduced using Lipofectaimine®2000 (Invitrogen®), followed by 24-hour incubation as described above, thereby preparing HeLa cells containing […]. […] Light irradiation was performed for 30 seconds simultaneously at 0.5 W/cm^2 and 0.6 W/cm^2 using a 640-/532-nm laser (Coherent) and a wide-view fluorescence microscope system mounted in an IX81 inverted microscope (Olympus Corporation). […]
Further, in this Experiment Example, 60-second light irradiation was performed using three kinds of photosensitizers, and an average number of pseudo colors appeared in the photo and an increase thereof were measured. […]

In the case of `O=C1OC2(c3cc(Cl)c(O)cc3Oc3cc(O)c(Cl)cc32)c2ccccc21` [2,7-dichlorofluorescein], the “ΦΔ (singlet oxygen generation quantum yield)” value ([1]; comparison value for SOSG chromophore) is given as 0.06.
For `O=C([O-])c1c(Cl)c(Cl)c(Cl)c(Cl)c1-c1c2cc(I)c(=O)c(I)c-2oc2c(I)c([O-])c(I)cc12.[Na+].[Na+]` [Rose Bengal], the “ΦΔ (singlet oxygen generation quantum yield)” value ([1]; in methanol, reference value) is listed as 0.76.
For `Cc1ccccc1C1=C2C=CC(=[N+](C)C)C=C2[Si](C)(C)c2cc(N(C)C)ccc21` [Si-Me], the “ΦΔ (singlet oxygen generation quantum yield)” value [2] was “about 0.02”.
In the case of `C[n+]1ccc(-c2c3nc(c(-c4cc[n+](C)cc4)c4ccc([nH]4)c(-c4cc[n+](C)cc4)c4nc(c(-c5cc[n+](C)cc5)c5ccc2[nH]5)C=C4)C=C3)cc1` [TMPyP4, tetra-(N-methyl-4-pyridyl)porphyrin, reference compound], the “average number of pseudo colors during light irradiation (Si-DMA fluorescence)” value (HeLa cells) is reported as “decreased”.
